Assay results as given in PMC8746695, “Zinc-Chelating Compounds as Inhibitors of Human and Bacterial Zinc Metalloproteases” (Molecules, 2021).

Key:
Type in all cases: biochemical
[1] = molecular target: T1, human MT1-MMP/MMP-14 (catalytic domain) (Homo sapiens, UniProt P50281); assay: Inhibition of MMP-14, fluorescence quenched peptide substrate McaPLGL(Dpa)AR-NH2; settings: substrate McaPLGL(Dpa)AR-NH2 4 µM; 30 min pre-incubation at room temperature; calculated from IC50; read-out: Ki ± s.d. MMP-14
T1 construct: human MT1-MMP/MMP-14 (catalytic domain); purchased Calbiochem (San Diego, CA, USA)
Procedure: (§1) McaPLGL(Dpa)AR-NH2 was used as a substrate for MMP-9 and MMP-14, while McaRPPGFSAFK(Dnp)-OH was used as substrate for ALN, PLN and TLN. The reaction velocities/initial rates (v) were determined at 37 °C, at an excitation wavelength of 320 nm and an emission wavelength of 405 nm with a slit width of 10 nm using either a Perkin Elmer LS 50 Luminescence spectrometer and the FL WinLab Software Package (Perkin Elmer) or a Clario Star microplate reader (CLARIOstar® BMG LABTECH).
(§2) The test compounds were dissolved in 100% DMSO giving a concentration of 10 mM. A fixed substrate concentration of 4.0 µM in a total volume of 100 µL 0.1 M Hepes pH 7.5, 10 mM CaCl2, 0.005% Brij-35 and 1.0% DMSO, were used in all assays, except for ALN where the substrate concentration was 5.0 µM. The fixed enzyme concentrations were as follows; 0.05 nM MMP-9, 1.0 nM MMP-14, 1.4 nM ALN, 0.5 nM PLN and 0.21 nM TLN. Time-dependent inhibitory experiments without and with 100 μM of testing compounds were performed as follows. Compounds were either pre-incubated with the proteases for 15, 30 and 45 min at room temperature and the enzymatic reaction was started by adding the substrate, or not pre-incubated, i.e., the reaction was started by adding the protease to the mixture of substrate and compound. Control tests without compound present were performed in the same way. The reaction was followed for 30 min at 37 °C.
(§3) Enzymes with and without inhibitor were pre-incubated for 30 min at room temperature, and initial rate assays were performed as described above. Assays were performed using a Clario Star microplate reader (CLARIOstar® BMG LABTECH). The IC50 values were calculated in Graph Pad Prism 5 using Equation (1):(1) vi/v0=1/(1+10^(pIC50−pI)) where vi is the enzyme activity in the presence of inhibitor, v0 the activity in the absence of inhibitor, pI = −log [Inhibitor] in M and pIC50 = −log IC50 in M. All experiments were performed in at least triplicate.

recombinant human MMP-9 = molecular target: T2, recombinant human MMP-9 (Homo sapiens, UniProt P14780); assay: Inhibition of MMP-9, fluorescence quenched peptide substrate McaPLGL(Dpa)AR-NH2; settings: substrate McaPLGL(Dpa)AR-NH2 4 µM; 30 min pre-incubation at room temperature; calculated from IC50; read-out: Ki ± s.d. MMP-9
T2 construct: made in house; host or cells: Sf9 insect cells
Procedure: The expression and purification of recombinant human full-length proMMP-9 (rpMMP-9) from Sf9 insect cells were performed as described previously. The amount of proMMP-9 was estimated spectrophotometrically at 280 nm using ε280 nm = 114.36 mM^−1 cm^−1 [48]. Activation of the recombinant proMMP-9 was performed with APMA (auto-activation) as described previously. The amount of active MMP-9 was determined by active site titration using galardin also described previously.
as §1, §2, §3

thermolysin (TLN) = molecular target: T3, thermolysin (TLN) (Bacillus thermoproteolyticus, UniProt P00800); assay: Inhibition of thermolysin (TLN), substrate McaRPPGFSAFK(Dnp)-OH; settings: substrate McaRPPGFSAFK(Dnp)-OH 4 µM; 30 min pre-incubation at room temperature; calculated from IC50; read-out: Ki ± s.d. TLN
T3 construct: purchased Calbiochem (San Diego, CA, USA)
Procedure: as §1, §2, §3

pseudolysin (PLN) = molecular target: T4, pseudolysin (PLN) (Pseudomonas aeruginosa, UniProt P14756); assay: Inhibition of pseudolysin (PLN), substrate McaRPPGFSAFK(Dnp)-OH
T4 construct: purchased Calbiochem (San Diego, CA, USA)
Procedure: as §1, §2, §3

aureolysin (ALN) = molecular target: T5, aureolysin (ALN) (Staphylococcus aureus, UniProt P81177); assay: Inhibition of aureolysin (ALN), substrate McaRPPGFSAFK(Dnp)-OH
T5 construct: purchased BioCentrum Ltd. (Kraków, Poland)
Procedure: as §1, §2, §3

T3 sequence (P00800 233-548): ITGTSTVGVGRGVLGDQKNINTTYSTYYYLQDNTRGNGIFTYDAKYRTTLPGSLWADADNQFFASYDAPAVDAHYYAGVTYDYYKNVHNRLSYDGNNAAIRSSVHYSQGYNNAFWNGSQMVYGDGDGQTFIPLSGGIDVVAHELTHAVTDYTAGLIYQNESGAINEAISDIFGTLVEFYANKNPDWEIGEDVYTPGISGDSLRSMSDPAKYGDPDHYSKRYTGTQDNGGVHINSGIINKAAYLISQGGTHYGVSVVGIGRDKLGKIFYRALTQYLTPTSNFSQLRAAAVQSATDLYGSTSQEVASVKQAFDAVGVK
T5 sequence (P81177 209-509): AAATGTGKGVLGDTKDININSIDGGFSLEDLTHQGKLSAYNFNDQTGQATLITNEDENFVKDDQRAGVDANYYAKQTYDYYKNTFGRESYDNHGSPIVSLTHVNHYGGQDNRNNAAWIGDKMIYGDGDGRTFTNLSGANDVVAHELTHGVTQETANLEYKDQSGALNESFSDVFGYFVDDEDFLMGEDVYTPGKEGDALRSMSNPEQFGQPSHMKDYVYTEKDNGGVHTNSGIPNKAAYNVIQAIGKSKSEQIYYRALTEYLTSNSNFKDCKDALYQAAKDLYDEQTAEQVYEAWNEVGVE
T4 sequence (P14756 198-498): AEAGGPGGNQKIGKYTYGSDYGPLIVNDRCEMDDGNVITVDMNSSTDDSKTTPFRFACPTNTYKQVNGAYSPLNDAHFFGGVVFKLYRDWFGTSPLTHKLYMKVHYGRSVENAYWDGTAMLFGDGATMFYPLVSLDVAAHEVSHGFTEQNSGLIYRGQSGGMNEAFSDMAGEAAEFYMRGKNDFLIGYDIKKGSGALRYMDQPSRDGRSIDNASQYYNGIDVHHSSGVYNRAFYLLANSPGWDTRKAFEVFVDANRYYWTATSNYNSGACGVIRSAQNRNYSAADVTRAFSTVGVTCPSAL
T2 sequence (P14780 107-707 limits assumed): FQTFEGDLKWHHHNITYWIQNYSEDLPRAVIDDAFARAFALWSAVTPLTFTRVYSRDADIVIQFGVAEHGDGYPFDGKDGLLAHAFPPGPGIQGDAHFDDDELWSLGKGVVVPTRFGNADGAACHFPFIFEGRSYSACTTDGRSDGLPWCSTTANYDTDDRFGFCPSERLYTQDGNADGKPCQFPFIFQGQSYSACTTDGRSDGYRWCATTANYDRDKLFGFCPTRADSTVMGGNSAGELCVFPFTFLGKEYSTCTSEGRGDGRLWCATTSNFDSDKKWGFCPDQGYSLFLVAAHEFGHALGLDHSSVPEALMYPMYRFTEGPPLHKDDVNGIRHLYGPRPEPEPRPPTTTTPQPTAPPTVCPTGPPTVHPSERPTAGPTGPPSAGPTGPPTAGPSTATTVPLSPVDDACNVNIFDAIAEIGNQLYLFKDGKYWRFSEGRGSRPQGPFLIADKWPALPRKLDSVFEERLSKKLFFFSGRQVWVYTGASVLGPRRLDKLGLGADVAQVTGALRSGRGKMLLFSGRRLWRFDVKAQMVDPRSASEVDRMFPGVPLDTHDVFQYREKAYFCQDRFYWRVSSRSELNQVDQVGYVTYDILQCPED

c1ccc(CN(Cc2ccccn2)Cc2ccccn2)nc1 [TPA, tri(2-pyridinemethyl)amine, reference compound]
Ki [1]: 1.2 ± 0.1 µM
Ki (recombinant human MMP-9): 15 ± 4 µM
Ki (thermolysin (TLN)): 5.5 ± 0.9 µM
Ki (pseudolysin (PLN)): 5 ± 2 µM
Ki (aureolysin (ALN)): 16 ± 1 µM
